Patent US8476265B2, “Compounds-801” (AstraZeneca AB, priority 2010, dated 2013)
Structures can show the parent of a compound that is named as a salt.

Columns and labels:
[1] = target: T1, human muscarinic acetylcholine M3 receptor (Homo sapiens, UniProt P20309); assay: Muscarinic 3 receptor binding assay ([3H]NMS competition, SPA), pIC50; details: [3H]NMS 0.1 nM, CHO-K1 cell membranes expressing human M3 receptor
T1 construct: expressed in transfected cells; host or cells: CHO-K1 (Chinese Hamster Ovary) cell membranes
T1 sequence (P20309 whole entry): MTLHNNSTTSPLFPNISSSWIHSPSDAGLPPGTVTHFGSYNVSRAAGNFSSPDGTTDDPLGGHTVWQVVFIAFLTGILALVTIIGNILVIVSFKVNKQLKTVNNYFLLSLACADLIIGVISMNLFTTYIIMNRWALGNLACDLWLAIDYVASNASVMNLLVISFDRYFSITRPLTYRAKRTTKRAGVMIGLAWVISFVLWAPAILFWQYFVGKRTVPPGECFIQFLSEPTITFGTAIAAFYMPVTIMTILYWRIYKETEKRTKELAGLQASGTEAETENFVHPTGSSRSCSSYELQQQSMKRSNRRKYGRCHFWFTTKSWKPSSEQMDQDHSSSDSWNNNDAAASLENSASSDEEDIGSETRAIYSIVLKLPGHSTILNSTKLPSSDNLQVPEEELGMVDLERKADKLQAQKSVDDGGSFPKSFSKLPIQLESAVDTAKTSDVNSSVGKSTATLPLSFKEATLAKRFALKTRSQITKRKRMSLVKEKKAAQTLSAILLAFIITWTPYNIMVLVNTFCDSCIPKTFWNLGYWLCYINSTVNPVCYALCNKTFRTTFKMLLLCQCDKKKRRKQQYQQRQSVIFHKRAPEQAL
Experimental: Muscarinic 3 Receptor Binding Assay
The affinity (pIC50) of compounds binding to the M3 receptor is determined by competition binding of [^3H]N-methyl scopolamine (NMS) to CHO-K1 (Chinese Hamster Ovary) cell membranes expressing the human muscarinic acetylcholine M3 receptor (M3-ACh) in a scintillation proximity assay (SPA) format.
SPA beads are precoated with membranes and then incubated at 2 mg of beads per well with serial dilutions of compounds of the invention, [^3H]NMS at 0.1 nM, quarter Kd (experimentally determined dissociation constant) and assay buffer (20 mM HEPES pH 7.4 containing 5 mM MgCl2 and 0.1% (w/v) bovine serum albumin). The assay is conducted in a final volume of 200 μL, in the presence of 1% (v/v) dimethyl sulphoxide (DMSO). Total binding of [^3H]NMS is determined in the absence of competing compound and non-specific binding of [^3H]NMS is determined in the presence of 1 μM atropine. The plates are incubated for 16 hours at room temperature and then read on Wallac Microbeta™ using a normalised ^3H protocol. The pIC50, defined as the negative logarithm of the molar concentration of compound required for 50% reduction in specific [^3H]-NMS binding, is determined.

Adrenergic β2 = target: T2, Adrenergic β2 (Homo sapiens, UniProt P07550); assay: Adrenergic β2 mediated cAMP production in H292 cells (AlphaScreen), concentration response; format: cell-based; details: for EC50: 60 min, 300 μM rolipram, read-out: β2 pEC50 (converted); for β2 Intrinsic Activity: fraction relative to the maximum activity determined for formoterol
T2 construct: Adherent H292 cells are removed from tissue culture flasks by treatment with Accutase™ cell detachment solution; endogenous in cells; host or cells: H292 cells
T2 sequence (P07550 whole entry): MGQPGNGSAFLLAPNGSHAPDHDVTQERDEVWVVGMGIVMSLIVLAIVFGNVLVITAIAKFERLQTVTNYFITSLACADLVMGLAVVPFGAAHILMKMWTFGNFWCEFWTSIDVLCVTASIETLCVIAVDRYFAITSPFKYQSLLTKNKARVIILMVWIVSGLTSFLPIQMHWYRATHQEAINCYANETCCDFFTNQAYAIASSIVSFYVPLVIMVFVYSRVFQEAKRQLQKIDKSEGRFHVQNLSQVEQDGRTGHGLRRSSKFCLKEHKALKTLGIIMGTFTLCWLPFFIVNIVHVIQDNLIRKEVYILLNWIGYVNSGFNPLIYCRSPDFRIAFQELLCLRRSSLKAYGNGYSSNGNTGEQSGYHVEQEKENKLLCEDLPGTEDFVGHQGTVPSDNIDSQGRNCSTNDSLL
Experimental: Assay for Adrenergic 132 Mediated cAMP Production
H292 cells are grown in 225 cm2 flasks incubator at 37° C., 5% CO2 in RPMI medium containing 10% (v/v) FBS (foetal bovine serum) and 2 mM L-glutamine.
Adherent H292 cells re removed from tissue culture flasks by treatment with Accutase™ cell detachment solution for 15 minutes. Flasks are incubated for 15 minutes in a humidified incubator at 37° C., 5% CO2. Detached cells are re-suspended in RPMI media (containing 10% (v/v) FBS and 2 mM L-glutamine) at 0.1×10^6 cells per mL. 10000 cells in 100 μl, are added to each well of a tissue-culture-treated 96-well plate and the cells incubated overnight in a humidified incubator at 37° C., 5% CO2. The culture media is removed and cells are washed twice with 100 μL assay buffer and replaced with 50 μl assay buffer (HBSS solution containing 10 mM HEPES pH7.4 and 5 mM glucose). Cells are rested at room temperature for 20 minutes after which time 25 μl of rolipram (1.2 mM made up in assay buffer containing 2.4% (v/v) dimethylsulphoxide) is added. Cells are incubated with rolipram for 10 minutes after which time test compounds are added and the cells are incubated for 60 minutes at room temperature. The final rolipram concentration in the assay is 300 μM and final vehicle concentration is 1% (v/v) dimethylsulphoxide. The reaction is stopped by removing supernatants, washing once with 100 μL assay buffer and replacing with 50 μL lysis buffer. The cell monolayer is frozen at −80° C. for 30 minutes (or overnight).
AlphaScreen™ cAMP detection
The concentration of cAMP (cyclic adenosine monophosphate) in the cell lysate is determined using AlphaScreen™ methodology. The frozen cell plate is thawed for 20 minutes on a plate shaker then 10 μL of the cell lysate is transferred to a 96-well white plate. 40 μL of mixed AlphaScreen™ detection beads pre-incubated with biotinylated cAMP, is added to each well and the plate incubated at room temperature for 3 hours in the dark. The AlphaScreen™ signal is measured using an EnVision spectrophotometer (Perkin-Elmer Inc.) with the recommended manufacturer's settings. cAMP concentrations are determined by reference to a calibration curve determined in the same experiment using standard cAMP concentrations. Concentration response curves for agonists are constructed and data is fitted to a four parameter logistic equation to determine both the pEC50 and Intrinsic Activity. Intrinsic Activity is expressed as a fraction relative to the maximum activity determined for formoterol in each experiment.

IC50 [1] [nM]	EC50 (Adrenergic β2) [nM]	β2 Intrinsic Activity (Adrenergic β2)	SMILES
2.51	12.6	1.0	CC(C)c1nc(C(=O)N2CCOC3(CCN(CCc4cccc(CCOCCC(=O)N(CCNCCc5ccc(O)c6c5OCC(=O)N6)C5CCCCC5)c4)CC3)C2)cs1 [Example 36, N-Cyclohexyl-N-(2-(2-(5-hydroxy-3-oxo-3,4-dihydro-2H-benzo[b][1,4]oxazin-8-yl)ethylamino)ethyl)-3-(3-(2-(4-(2-isopropylthiazole-4-carbonyl)-1-oxa-4,9-diazaspiro[5.5]undecan-9-yl)ethyl)phenethoxy)propanamide ditrifluoroacetate]
0.398	15.8	1.0	CCCC[C@@H](C)N(CCNCCc1ccc(O)c2c1OCC(=O)N2)C(=O)CCOCCc1cccc(CCN2CCC3(CC2)CN(C(=O)c2csc(C)n2)CCO3)c1 [Example 38, (R)—N-(Hexan-2-yl)-N-(2-(2-(5-hydroxy-3-oxo-3,4-dihydro-2H-benzo[b][1,4]oxazin-8-yl)ethylamino)ethyl)-3-(3-(2-(4-(2-methylthiazole-4-carbonyl)-1-oxa-4,9-diazaspiro[5.5]undecan-9-yl)ethyl)phenethoxy)propanamide ditrifluoroacetate]
0.126	126	0.9	Cc1cc(C(=O)N2CCOC3(CCN(Cc4cccc(CCOCCC(=O)N(CCNCCc5ccc(O)c6c5OCC(=O)N6)C5CCCCC5)c4)CC3)C2)cs1 [Example 85, N-Cyclohexyl-N-(2-(2-(5-hydroxy-3-oxo-3,4-dihydro-2H-benzo[b][1,4]oxazin-8-yl)ethylamino)ethyl)-3-(3-((4-(5-methylthiophene-3-carbonyl)-1-oxa-4,9-diazaspiro[5.5]undecan-9-yl)methyl)phenethoxy)propanamide]
0.631	50.1	0.9	CC(C)c1nc(C(=O)N2CCOC3(CCN(Cc4cccc(CCOCCC(=O)N(CCNCCc5ccc(O)c6c5OCC(=O)N6)[C@H](C)C(C)(C)C)c4F)CC3)C2)cs1 [Example 19, (R)—N-(3,3-Dimethylbutan-2-yl)-3-(2-fluoro-3-((4-(2-isopropylthiazole-4-carbonyl)-1-oxa-4,9-diazaspiro[5.5]undecan-9-yl)methyl)phenethoxy)-N-(2-(2-(5-hydroxy-3-oxo-3,4-dihydro-2H-benzo[b][1,4]oxazin-8-yl)ethylamino)ethyl)propanamide ditrifluoroacetate]
0.501	63.1	1.0	CCCCN(CCNCCc1ccc(O)c2c1OCC(=O)N2)C(=O)CCOCCc1cc(C)cc(CN2CCC3(CC2)CN(C(=O)c2csc(C(C)C)n2)CCO3)c1 [Example 65, N-Butyl-N-(2-(2-(5-hydroxy-3-oxo-3,4-dihydro-2H-benzo[b][1,4]oxazin-8-yl)ethylamino)ethyl)-3-(3-((4-(2-isopropylthiazole-4-carbonyl)-1-oxa-4,9-diazaspiro[5.5]undecan-9-yl)methyl)-5-methylphenethoxy)propanamide ditrifluoroacetate]
0.2	79.4	1.1	CC(C)c1nc(C(=O)N2CCOC3(CCN(Cc4cccc(CCOCCC(=O)N(CCNCCc5ccc(O)c6c5OCC(=O)N6)CCC(F)(F)F)c4F)CC3)C2)cs1 [Example 20, 3-(2-Fluoro-3-((4-(2-isopropylthiazole-4-carbonyl)-1-oxa-4,9-diazaspiro[5.5]undecan-9-yl)methyl)phenethoxy)-N-(2-(2-(5-hydroxy-3-oxo-3,4-dihydro-2H-benzo[b][1,4]oxazin-8-yl)ethylamino)ethyl)-N-(3,3,3-trifluoropropyl)propanamide ditrifluoroacetate]
0.398	31.6	0.7	CCN(CCNCCc1ccc(O)c2c1OCC(=O)N2)C(=O)CCOCCc1cccc(CN2CCC3(CC2)CN(C(=O)c2csc(C(C)C)n2)CCO3)c1F [Example 15, N-Ethyl-3-(2-fluoro-3-((4-(2-isopropylthiazole-4-carbonyl)-1-oxa-4,9-diazaspiro[5.5]undecan-9-yl)methyl)phenethoxy)-N-(2-(2-(5-hydroxy-3-oxo-3,4-dihydro-2H-benzo[b][1,4]oxazin-8-yl)ethylamino)ethyl)propanamide ditrifluoroacetate]
0.316	63.1	1.1	Cc1ccccc1CN(CCNCCc1ccc(O)c2c1OCC(=O)N2)C(=O)CCOCCc1cccc(CN2CCC3(CC2)CN(C(=O)c2csc(C(C)C)n2)CCO3)c1F [Example 21, 3-(2-Fluoro-3-((4-(2-isopropylthiazole-4-carbonyl)-1-oxa-4,9-diazaspiro[5.5]undecan-9-yl)methyl)phenethoxy)-N-(2-(2-(5-hydroxy-3-oxo-3,4-dihydro-2H-benzo[1)][1,4]oxazin-8-yl)ethylamino)ethyl)-N-(2-methylbenzyl)propanamide ditrifluoroacetate]
5.01	200	1.0	Cc1cc(C(=O)N2CCOC3(CCN(Cc4cccc(CCOCCC(=O)N(CCNCCc5ccc(O)c6c5OCC(=O)N6)C5CCCCC5)c4)CC3)C2)sc1C [Example 89, N-Cyclohexyl-3-(3-((4-(4,5-dimethylthiophene-2-carbonyl)-1-oxa-4,9-diazaspiro[5.5]undecan-9-yl)methyl)phenethoxy)-N-(2-(2-(5-hydroxy-3-oxo-3,4-dihydro-2H-benzo[b][1,4]oxazin-8-yl)ethylamino)ethyl)propanamide]
0.251	79.4	1.2	Cc1ccc(CN(CCNCCc2ccc(O)c3c2OCC(=O)N3)C(=O)CCOCCc2cccc(CN3CCC4(CC3)CN(C(=O)c3csc(C(C)C)n3)CCO4)c2F)cc1 [Example 22, 3-(2-Fluoro-3-(4-(2-isopropylthiazole-4-carbonyl)-1-oxa-4,9-diazaspiro[5.5]undecan-9-yl)methyl)phenethoxy)-N-(2-(2-(5-hydroxy-3-oxo-3,4-dihydro-2H-benzo[b][1,4]oxazin-8-yl)ethylamino)ethyl)-N-(4-methylbenzyl)propanamide ditrifluoroacetate]
1	10	1.0	CC(C)c1nc(C(=O)N2CCOC3(CCN(CCc4cccc(CCOCCC(=O)N(CCNCCc5ccc(O)c6c5OCC(=O)N6)C5CCCC5)c4)CC3)C2)cs1 [Example 39, N-Cyclopentyl-N-(2-(2-(5-hydroxy-3-oxo-3,4-dihydro-2H-benzo[b][1,4]oxazin-8-yl)ethylamino)ethyl)-3-(3-(2-(4-(2-isopropylthiazole-4-carbonyl)-1-oxa-4,9-diazaspiro[5.5]undecan-9-yl)ethyl)phenethoxy)propanamide ditrifluoroacetate]
0.501	–	–	CCc1nc(C(=O)N2CCOC3(CCN(Cc4cccc(CCOCCC(=O)N(CCNCCc5ccc(O)c6c5OCC(=O)N6)C5CCCC5)c4Cl)CC3)C2)cs1 [Example 33a, 3-(2-chloro-3-((4-(2-ethylthiazole-4-carbonyl)-1-oxa-4,9-diazaspiro[5.5]undecan-9-yl)methyl)phenethoxy)-N-cyclopentyl-N-(2-(2-(5-hydroxy-3-oxo-3,4-dihydro-2H-benzo[b][1,4]oxazin-8-yl)ethylamino)ethyl)propanamide, sulphate salt]
